From the supplement of paper PMC11208160
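Further: IS621 bridge recombinase in Escherichia coli cells against a fixed T5 target plasmid.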

Assay: recombinant UMI read abundance after kanamycin selection (control-corrected) (log10(CPM+1)); higher = more efficient recombination; extreme values may be limits of the assay; sequences stand for … in AGTGCAGAGAAAATCGGCCAGTTTTCTCTGCCTGCAGTCCGCATGCCGTGGGACCCCTTGGGTTCTAACCTGTTGCCTAGATTTATGCAGCGGACTGCCTTTCTCCCAAAGTGATAAACCGG…AGGTTGGTTTCACT; site = the 11-nt donor
Outline: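 In a pooled Escherichia coli screen for the IS621 bridge recombinase, donor and donor-binding-loop pairs were each placed with a 12-nt UMI on a plasmid bearing a promoterless kanamycin gene. This library was co-electroporated with a target plasmid encoding a fixed target and T7-inducible recombinase, and cells were plated either on IPTG (0.07 mM) plus kanamycin or without selection, in two replicates each. Recombinant UMIs were PCR-amplified across the donor–target junction and sequenced, and counts were converted to CPM, averaged over replicates, scaled by control-derived factors and reported as log10(CPM+1).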
With “CCCTAGCCATGGACCGGTTTTCCCGGTAATCCGTATTTGCA (site CCCTAGCCTTG)” the “recombinant UMI read abundance (log10)” value was 0.
In the case of “CCCTAGCCATGGACCGGTTTTCCCGGTAATCCGTATTTGCG (site CCCTAGCCTAG)”, the “recombinant UMI read abundance (log10)” value is reported as 0.
For “CCCTAGCCATGGACCGGTTTTCCCGGTAATCCGTATTTGCG (site CCCTAGCCTCG)”, the “recombinant UMI read abundance (log10)” value was 0.0131.
For “CCCTAGCCATGGACCGGTTTTCCCGGTAATCCGTATTTGCG (site CCCTAGCCTGG)”, the “recombinant UMI read abundance (log10)” value was 0.
With “CCCTAGCCATGGACCGGTTTTCCCGGTAATCCGTATTTGCG (site CCCTAGCCTTG)” the “recombinant UMI read abundance (log10)” value was 0.
With “CCCTAGCCATGGACCGGTTTTCCCGGTAATCCGTATTTGCT (site CCCTAGCCTAG)” the “recombinant UMI read abundance (log10)” value was 0.
In the case of “CCCTAGCCATGGACCGGTTTTCCCGGTAATCCGTATTTGCT (site CCCTAGCCTCG)”, the “recombinant UMI read abundance (log10)” value is reported as 0.
In the case of “CCCTAGCCATGGACCGGTTTTCCCGGTAATCCGTATTTGCT (site CCCTAGCCTGG)”, the “recombinant UMI read abundance (log10)” value is reported as 0.
With “CCCTAGCCATGGACCGGTTTTCCCGGTAATCCGTATTTGCT (site CCCTAGCCTTG)” the “recombinant UMI read abundance (log10)” value was 0.
In the case of “CCCTCAACATGGACCGGTTTTCCCGGTAATCCGTATTTGAT (site CCCTCAACTAT)”, the “recombinant UMI read abundance (log10)” value is reported as 0.00694.
With “CCCTCAACATGGACCGGTTTTCCCGGTAATCCGTATTTGGG (site CCCTCAACTCC)” the “recombinant UMI read abundance (log10)” value was 0.0112.
For “CCCTCCTCATGGACCGGTTTTCCCGGTAATCCGTATTTGAG (site CCCTCCTCTCT)”, the “recombinant UMI read abundance (log10)” value was 0.256.
With “CCCTCCTCATGGACCGGTTTTCCCGGTAATCCGTATTTGGG (site CCCTACTCTCC)” the “recombinant UMI read abundance (log10)” value was 0.0129.
In the case of “CCCTCCTCATGGACCGGTTTTCCCGGTAATCCGTATTTGGG (site CCCTCCTCTCC)”, the “recombinant UMI read abundance (log10)” value is reported as 0.487.
In the case of “CCCTCCTCATGGACCGGTTTTCCCGGTAATCCGTATTTGGG (site CCCTGCTCTCC)”, the “recombinant UMI read abundance (log10)” value is reported as 0.
For “CCCTCCTCATGGACCGGTTTTCCCGGTAATCCGTATTTGGG (site CCCTTCTCTCC)”, the “recombinant UMI read abundance (log10)” value was 0.00367.
With “CCCTGATCATGGACCGGTTTTCCCGGTAATCCGTATTTGAG (site CCCTGATCTCT)” the “recombinant UMI read abundance (log10)” value was 0.248.
For “CCCTTATCATGGACCGGTTTTCCCGGTAATCCGTATTTGGG (site CCCTTATCTCC)”, the “recombinant UMI read abundance (log10)” value was 0.162.
For “CCCTTATCATGGACCGGTTTTCCCGGTAATCCGTATTTGGG (site CCCTTCTCTCC)”, the “recombinant UMI read abundance (log10)” value was 0.0199.
For “CCCTTATCATGGACCGGTTTTCCCGGTAATCCGTATTTGGG (site CCCTTGTCTCC)”, the “recombinant UMI read abundance (log10)” value was 0.0199.
In the case of “CCCTTATCATGGACCGGTTTTCCCGGTAATCCGTATTTGGG (site CCCTTTTCTCC)”, the “recombinant UMI read abundance (log10)” value is reported as 0.
For “CCCTTCTCATGGACCGGTTTTCCCGGTAATCCGTATTTGGT (site CCCTTCTCTAC)”, the “recombinant UMI read abundance (log10)” value was 1.32.
For “CCCTTCTCATGGACCGGTTTTCCCGGTAATCCGTATTTGGT (site CCCTTCTCTCC)”, the “recombinant UMI read abundance (log10)” value was 0.182.
With “CCCTTCTCATGGACCGGTTTTCCCGGTAATCCGTATTTGGT (site CCCTTCTCTGC)” the “recombinant UMI read abundance (log10)” value was 0.
With “CCCTTCTCATGGACCGGTTTTCCCGGTAATCCGTATTTGGT (site CCCTTCTCTTC)” the “recombinant UMI read abundance (log10)” value was 0.121.
In the case of “CCCTTGGCATGGACCGGTTTTCCCGGTAATCCGTATTTGGA (site CACTTGGCTTC)”, the “recombinant UMI read abundance (log10)” value is reported as 0.0394.
For “CCCTTGGCATGGACCGGTTTTCCCGGTAATCCGTATTTGGA (site CCCTTGGCTTC)”, the “recombinant UMI read abundance (log10)” value was 0.107.
In the case of “CCCTTGGCATGGACCGGTTTTCCCGGTAATCCGTATTTGGA (site CGCTTGGCTTC)”, the “recombinant UMI read abundance (log10)” value is reported as 0.0127.
In the case of “CCCTTGGCATGGACCGGTTTTCCCGGTAATCCGTATTTGGA (site CTCTTGGCTTC)”, the “recombinant UMI read abundance (log10)” value is reported as 0.00833.
For “CCGAAAACATGGACCGGTTTTCCCGGTAATCCGTATTTGCT (site ACGAAAACTAG)”, the “recombinant UMI read abundance (log10)” value was 0.
For “CCGAAAACATGGACCGGTTTTCCCGGTAATCCGTATTTGCT (site CCGAAAACTAG)”, the “recombinant UMI read abundance (log10)” value was 0.973.
In the case of “CCGAAAACATGGACCGGTTTTCCCGGTAATCCGTATTTGCT (site GCGAAAACTAG)”, the “recombinant UMI read abundance (log10)” value is reported as 0.
In the case of “CCGAAAACATGGACCGGTTTTCCCGGTAATCCGTATTTGCT (site TCGAAAACTAG)”, the “recombinant UMI read abundance (log10)” value is reported as 0.
For “CCGAAACCATGGACCGGTTTTCCCGGTAATCCGTATTTGCG (site CCGAAACCTCG)”, the “recombinant UMI read abundance (log10)” value was 0.
In the case of “CCGAATCCATGGACCGGTTTTCCCGGTAATCCGTATTTGTT (site CAGAATCCTAA)”, the “recombinant UMI read abundance (log10)” value is reported as 0.
With “CCGAATCCATGGACCGGTTTTCCCGGTAATCCGTATTTGTT (site CCGAATCCTAA)” the “recombinant UMI read abundance (log10)” value was 0.251.
With “CCGAATCCATGGACCGGTTTTCCCGGTAATCCGTATTTGTT (site CGGAATCCTAA)” the “recombinant UMI read abundance (log10)” value was 0.
With “CCGAATCCATGGACCGGTTTTCCCGGTAATCCGTATTTGTT (site CTGAATCCTAA)” the “recombinant UMI read abundance (log10)” value was 0.00536.
In the case of “CCGACCGCATGGACCGGTTTTCCCGGTAATCCGTATTTGTA (site CCGACCGCTTA)”, the “recombinant UMI read abundance (log10)” value is reported as 0.904.
With “CCGAGTCCATGGACCGGTTTTCCCGGTAATCCGTATTTGAA (site CCGAGTCCTTT)” the “recombinant UMI read abundance (log10)” value was 0.417.
With “CCGATTACATGGACCGGTTTTCCCGGTAATCCGTATTTGCT (site CCGATTACTAG)” the “recombinant UMI read abundance (log10)” value was 0.743.
With “CCGATTACATGGACCGGTTTTCCCGGTAATCCGTATTTGCT (site CCGCTTACTAG)” the “recombinant UMI read abundance (log10)” value was 0.
With “CCGATTACATGGACCGGTTTTCCCGGTAATCCGTATTTGCT (site CCGGTTACTAG)” the “recombinant UMI read abundance (log10)” value was 0.
For “CCGATTACATGGACCGGTTTTCCCGGTAATCCGTATTTGCT (site CCGTTTACTAG)”, the “recombinant UMI read abundance (log10)” value was 0.
In the case of “CCGCCACCATGGACCGGTTTTCCCGGTAATCCGTATTTGAT (site CCGCCACCTAT)”, the “recombinant UMI read abundance (log10)” value is reported as 0.00762.
For “CCGCCGACATGGACCGGTTTTCCCGGTAATCCGTATTTGTT (site CCGCCGACTAA)”, the “recombinant UMI read abundance (log10)” value was 0.275.
In the case of “CCGCTACCATGGACCGGTTTTCCCGGTAATCCGTATTTGCT (site CAGCTACCTAG)”, the “recombinant UMI read abundance (log10)” value is reported as 0.
For “CCGCTACCATGGACCGGTTTTCCCGGTAATCCGTATTTGCT (site CCGCTACCTAG)”, the “recombinant UMI read abundance (log10)” value was 0.
For “CCGCTACCATGGACCGGTTTTCCCGGTAATCCGTATTTGCT (site CGGCTACCTAG)”, the “recombinant UMI read abundance (log10)” value was 0.
With “CCGCTACCATGGACCGGTTTTCCCGGTAATCCGTATTTGCT (site CTGCTACCTAG)” the “recombinant UMI read abundance (log10)” value was 0.00224.
For “CCGCTAGCATGGACCGGTTTTCCCGGTAATCCGTATTTGTG (site CCGATAGCTCA)”, the “recombinant UMI read abundance (log10)” value was 0.0148.
For “CCGCTAGCATGGACCGGTTTTCCCGGTAATCCGTATTTGTG (site CCGCTAGCTCA)”, the “recombinant UMI read abundance (log10)” value was 0.337.
For “CCGCTAGCATGGACCGGTTTTCCCGGTAATCCGTATTTGTG (site CCGGTAGCTCA)”, the “recombinant UMI read abundance (log10)” value was 0.0182.
With “CCGCTAGCATGGACCGGTTTTCCCGGTAATCCGTATTTGTG (site CCGTTAGCTCA)” the “recombinant UMI read abundance (log10)” value was 0.
With “CCGCTTACATGGACCGGTTTTCCCGGTAATCCGTATTTGCT (site CCGATTACTAG)” the “recombinant UMI read abundance (log10)” value was 0.
In the case of “CCGCTTACATGGACCGGTTTTCCCGGTAATCCGTATTTGCT (site CCGCTTACTAG)”, the “recombinant UMI read abundance (log10)” value is reported as 1.48.
For “CCGCTTACATGGACCGGTTTTCCCGGTAATCCGTATTTGCT (site CCGGTTACTAG)”, the “recombinant UMI read abundance (log10)” value was 0.
For “CCGCTTACATGGACCGGTTTTCCCGGTAATCCGTATTTGCT (site CCGTTTACTAG)”, the “recombinant UMI read abundance (log10)” value was 0.
In the case of “CCGCTTCCATGGACCGGTTTTCCCGGTAATCCGTATTTGTC (site CCGCTTCCTGA)”, the “recombinant UMI read abundance (log10)” value is reported as 0.
With “CCGCTTTCATGGACCGGTTTTCCCGGTAATCCGTATTTGAG (site CCGCTTTCTCT)” the “recombinant UMI read abundance (log10)” value was 0.19.
For “CCGGAAACATGGACCGGTTTTCCCGGTAATCCGTATTTGTT (site CCGGAAACTAA)”, the “recombinant UMI read abundance (log10)” value was 1.15.
For “CCGGATCCATGGACCGGTTTTCCCGGTAATCCGTATTTGTT (site CCGGATCCTAA)”, the “recombinant UMI read abundance (log10)” value was 0.556.
With “CCGGATCCATGGACCGGTTTTCCCGGTAATCCGTATTTGTT (site CGGAATCCTAA)” the “recombinant UMI read abundance (log10)” value was 0.00344.
In the case of “CCGGCTACATGGACCGGTTTTCCCGGTAATCCGTATTTGAT (site CCGGCTACTAT)”, the “recombinant UMI read abundance (log10)” value is reported as 1.37.
In the case of “CCGGGGCCATGGACCGGTTTTCCCGGTAATCCGTATTTGAT (site CCGGGGCCTAT)”, the “recombinant UMI read abundance (log10)” value is reported as 0.04.
With “CCGGGTGCATGGACCGGTTTTCCCGGTAATCCGTATTTGAT (site CCAGGTGCTAT)” the “recombinant UMI read abundance (log10)” value was 1.63.
With “CCGGGTGCATGGACCGGTTTTCCCGGTAATCCGTATTTGAT (site CCCGGTGCTAT)” the “recombinant UMI read abundance (log10)” value was 0.797.
With “CCGGGTGCATGGACCGGTTTTCCCGGTAATCCGTATTTGAT (site CCGGGTGCTAT)” the “recombinant UMI read abundance (log10)” value was 1.25.
